The values that follow come from ChEMBL document CHEMBL1764954, “Activation of the G-protein-coupled receptor 119: a conformation-based hypothesis for understanding agonist response” (J Med Chem, 2011).

Values after ≈ are worked out from the molar mass of the structure shown. Active and inactive are the calls of the source. No cut-off for these calls is given here. Some results are limits rather than exact numbers.

Series [1] can be described thus: Aqueous solubility of the compound. The series is classed as physicochemical. The following applies: aqueous medium.
A short description of series [2]: Solubility of the compound in gastric fluid at pH 1.2. The series is classed as physicochemical. The following applies: simulated gi fluid.
Series [3] has as its system Rattus norvegicus. In words: Hypoglycemic activity in overnight fasted Wistar rats assessed as decrease in glucose AUC at 5 and 50 mg/kg, po by oral glucose tolerance test. Type of series: functional, organism-based. The arrangement: dose 50 mg/kg.
Series [4] concerns Rattus norvegicus. As to the kind of experiment: Increase in GLP1 level in overnight fasted Wistar rats at 5 and 50 mg/kg, po. The arrangement: dose 50 mg/kg. The series is classed as functional, organism-based.

For orientation: solubility means the concentration that dissolves in the medium under given conditions. High values mean a readily soluble substance, low ones a poorly soluble substance. In series [1], `Cc1ncccc1Oc1ncnc(OC2CCN(C(=O)OC(C)C)CC2)c1C` gave a solubility of more than 40 mg/mL.

Take `Cc1ncccc1Oc1ncnc(OC2C3COCC2CN(C(=O)OC(C)C)C3)c1C` (stereo in doubt; 8) [listing 1 of 2 here]: the solubility in series [2] was 8.6 mg/mL (≈ 20.1 mM).

Consider `Cc1ncccc1Oc1ncnc(OC2C3COCC2CN(C(=O)OC(C)C)C3)c1C` (stereo in doubt; 8) [listing 2 of 2 here], for which the outcome in series [3] and in series [4] was Active.

`Cc1ncccc1Oc1ncnc(OC2C3COCC2CN(C(=O)OC(C)C)C3)c1C` (stereo in doubt; 9) displayed a solubility in series [2] of more than 66 mg/mL.
